Experimental data from US10308652B2, “Tricyclic heterocyclic compounds useful as inhibitors of TNF” (BRISTOL-MYERS SQUIBB COMPANY, priority 2015, dated 2019).

Target: TNFα (Homo sapiens (Human), UniProt P01375)
Test: TNF induced HEK-Blue assay
Format: cell-based
Details: TNFα 0.5 ng/ml; HEK-Blue-CD40L cells, NF-κB-driven secreted alkaline phosphatase reporter; 18 h
Method: TNF or CD40L-induced HEK-Blue Assay Test compounds serially diluted in DMSO were plated in an assay plate (Labcyte, Cat. #LP-0200) at final concentrations ranging from 0.004 μM to 25μM. TNFα (final concentration 0.5 ng/ml) or CD4OL (final concentration 30 ng/ml) in assay buffer [DMEM, 4.5 g/l glucose (Gibco, Cat. 21063-029), 10% FBS (Sigma, F4135), 1% Penicillin-Streptomycin (Gibco, Cat. 15140-122), 1% Anti-Anti (Gibco, Cat. 15240-112) and 2 mM L-glutamine (Gibco, Cat. 25030-081)] was then added to the assay plate. After a 30 minute pre-incubation at 37° C. and 5% CO2, HEK-Blue-CD40L cells (InvivoGen, Cat. Code hkb-cd40) containing a NF-κB-driven secreted alkaline phosphatase reporter gene were seeded into the assay plate at a density of 20,000 cells per well. This plate was then incubated for 18 h at 37° C. and 5% CO2. Secreted alkaline phosphatase expression was measured using QUANTI-Blue (InvivoGen, Cat. Code rep-qb1) according to manufacturer's specifications and the assay plate was read on a PerkinElmer Envision at 620 nm. Inhibition data for the test compound over a range of concentrations was plotted as percentage inhibition of the test compound (100%=maximum inhibition). IC50 values were determined after correcting for background [(sample read−mean of low control)/(mean of high control−mean of low control)] where by the low control is DMSO without stimulation and high control is DMSO with stimulation. The IC50 is defined as the concentration of test compound which produces 50% inhibition and was quantified using the 4 parameter logistic equation to fit the data.

Sequence of TNFα (P01375 77-233): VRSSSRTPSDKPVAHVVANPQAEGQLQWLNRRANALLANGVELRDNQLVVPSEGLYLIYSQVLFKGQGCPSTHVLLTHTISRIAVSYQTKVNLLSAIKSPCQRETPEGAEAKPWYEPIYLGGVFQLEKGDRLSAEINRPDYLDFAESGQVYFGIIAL

CC(C)(O)c1ccc(-c2ccc3nc4c(n3n2)[C@@H](c2ccc(F)cc2C(F)(F)F)NC[C@H]4O)cc1 (racemic) [Example 39, (+/−)-cis-9-(4-fluoro-2-(trifluoromethyl)phenyl)-2-(4-(2-hydroxypropan-2-yl)phenyl)-6,7,8,9-tetrahydropyrido[4′,3′:4,5]imidazo[1,2-b]pyridazin-6-ol]
IC50: < 1 µM

COc1ccc(-c2ccc3nc4c(n3n2)C(c2ccccc2OC(F)F)NCC4O)cn1 [Example 16, cis-(6R,9S)-9-(2-(difluoromethoxy)phenyl)-2-(6-methoxypyridin-3-yl)-6,7,8,9-tetrahydropyrido[4′,3′:4,5]imidazo[1,2-b]pyridazin-6-ol]
IC50: 1 to 10 µM

NS(=O)(=O)c1ccc(-c2ccc3nc4c(n3n2)[C@@H](c2ccccc2OC(F)F)NC[C@H]4O)cc1 (racemic) [Example 46, (+/−)-cis-4-(9-(2-(difluoromethoxy)phenyl)-6-hydroxy-6,7,8,9-tetrahydropyrido[4′,3′:4,5]imidazo[1,2-b]pyridazin-2-yl)benzenesulfonamide]
IC50: 1 to 10 µM

CC(C)(O)c1ccc(-c2ccc3nc4c(n3n2)C(c2ccccc2OC(F)F)NCC4F)cc1 [Example 12, cis-(1S,4S)-2-(4-(9-(2-(difluoromethoxy)phenyl)-6-fluoro-6,7,8,9-tetrahydropyrido[4′,3′:4,5]imidazo[1,2-b]pyridazin-2-yl)phenyl) propan-2-ol]
IC50: < 1 µM

Cc1cc(F)ccc1[C@@H]1NC[C@@H](O)c2nc3ccc(-c4ccc(C(C)(C)O)cc4)nn3c21 (racemic) [Example 38, (+/−)-trans-9-(4-fluoro-2-methylphenyl)-2-(4-(2-hydroxypropan-2-yl)phenyl)-6,7,8,9-tetrahydropyrido[4′,3′:4,5]imidazo[1,2-b]pyridazin-6-ol]
IC50: 1 to 10 µM

COC1CN(C(=O)c2ccc(-c3ccc4nc5c(n4n3)C(c3ccccc3OC(F)F)NCC5O)cc2)C1 (centres unmarked) [Example 18, (4-(9-(2-(difluoromethoxy)phenyl)-6-hydroxy-6,7,8,9-tetrahydropyrido[4′,3′:4,5]imidazo[1,2-b]pyridazin-2-yl)phenyl)(3-methoxyazetidin-1-yl)methanone]
IC50: 10 to 25 µM

CC(C)(O)c1ccc(-c2ccc3nc4c(n3n2)[C@H](c2ccccc2OC(F)F)OC[C@H]4O)cc1 (racemic) [Example 57, Rac-(6S,9S)-9-(2-(difluoromethoxy)phenyl)-2-(4-(2-hydroxypropan-2-yl)phenyl)-7,9-dihydro-6H-pyrano[4′,3′:4,5]imidazo[1,2-b]pyridazin-6-ol]
IC50: 1 to 10 µM

CC(C)(O)c1ncc(-c2ccc3nc4c(n3n2)C(c2ccccc2OC(F)F)NCC4)cn1 (racemic) [Example 3, (+/−)-2-(5-(9-(2-(Difluoromethoxy)phenyl)-6,7,8,9-tetrahydropyrido[4′,3′:4,5]imidazo[1,2-b]pyridazin-2-yl)pyrimidin-2-yl)propan-2-ol]
IC50: 1 to 10 µM

(+/−)-trans-9-(2-(difluoromethoxy)phenyl)-2-(4-(2-hydroxy-2-methylpropoxy)phenyl)-6,7,8,9-tetrahydropyrido[4′,3′:4,5]imidazo[1,2-b]pyridazin-6-ol [Example 52]
IC50: 1 to 10 µM

O=C(NC1CC1)c1ccc(-c2ccc3nc4c(n3n2)C(c2ccccc2OC(F)F)NCC4O)cn1 (centres unmarked) [Example 21, N-cyclopropyl-5-(9-(2-(difluoromethoxy)phenyl)-6-hydroxy-6,7,8,9-tetrahydropyrido[4′,3′:4,5]imidazo[1,2-b]pyridazin-2-yl)picolinamide]
IC50: 1 to 10 µM

CCc1ccccc1[C@@H]1NC[C@@H](O)c2nc3ccc(-c4ccc(C(C)(C)O)cc4)nn3c21 (racemic) [Example 24, (+/−)-trans-9-(2-ethylphenyl)-2-(4-(2-hydroxypropan-2-yl)phenyl)-6,7,8,9-tetrahydropyrido[4′,3′:4,5]imidazo[1,2-b]pyridazin-6-ol]
IC50: < 1 µM

NC(=O)c1ccc(-c2ccc3nc4c(n3n2)[C@@H](c2ccccc2OC(F)F)NC[C@H]4O)cc1Cl (racemic) [Example 48, (+/−)-cis-2-chloro-4-(9-(2-(difluoromethoxy)phenyl)-6-hydroxy-6,7,8,9-tetrahydropyrido[4′,3′:4,5]imidazo[1,2-b]pyridazin-2-yl)benzamide]
IC50: 10 to 25 µM

(+/−)-cis-9-(2-(difluoromethoxy)phenyl)-2-(4-(3-hydroxypentan-3-yl)phenyl)-6,7,8,9-tetrahydropyrido[4′,3′:4,5]imidazo[1,2-b]pyridazin-6-ol [Example 49]
IC50: 1 to 10 µM

CC(C)(O)c1ccc(-c2ccc3nc4c(n3n2)[C@@H](c2ccccc2OC(F)F)NC[C@H]4F)cc1 [Example 13, cis-(1R,4R)-2-(4-(9-(2-(difluoromethoxy)phenyl)-6-fluoro-6,7,8,9-tetrahydropyrido[4′,3′:4,5]imidazo[1,2-b]pyridazin-2-yl)phenyl)propan-2-ol]
IC50: < 1 µM

COc1cc(-c2ccc3nc4c(n3n2)[C@@H](c2ccccc2OC(F)F)NC[C@H]4O)ccc1OCC(C)(C)O (racemic) [Example 30, (+/−)-cis-9-(2-(difluoromethoxy)phenyl)-2-(4-(2-hydroxy-2-methylpropoxy)-3-methoxyphenyl)-6,7,8,9-tetrahydropyrido[4′,3′:4,5]imidazo[1,2-b]pyridazin-6-ol]
IC50: 1 to 10 µM

O=C(c1ccc(-c2ccc3nc4c(n3n2)C(c2ccccc2OC(F)F)NCC4O)cc1)N1CCOCC1 (centres unmarked) [Example 19, (4-(9-(2-(difluoromethoxy)phenyl)-6-hydroxy-6,7,8,9-tetrahydropyrido[4′,3′:4,5]imidazo[1,2-b]pyridazin-2-yl)phenyl)(morpholino)methanone]
IC50: 1 to 10 µM

CC(C)(O)c1ccc(-c2ccc3nc4c(n3n2)[C@H](c2cc(Cl)ccc2C(F)(F)F)NC[C@H]4O)cc1 (racemic) [Example 55, (+/−)-trans-9-(5-chloro-2-(trifluoromethyl)phenyl)-2-(4-(2-hydroxypropan-2-yl)phenyl)-6,7,8,9-tetrahydropyrido [4′,3′:4,5]imidazo[1,2-b]pyridazin-6-ol]
IC50: 1 to 10 µM

O[C@@H]1CN[C@H](c2ccccc2OC(F)F)c2c1nc1ccc(-c3ccc(C4(O)CC4)cc3)nn21 (racemic) [Example 36, (+/−)-cis-9-(2-(difluoromethoxy)phenyl)-2-(4-(1-hydroxycyclopropyl)phenyl)-6,7,8,9-tetrahydropyrido [4′,3′:4,5]imidazo[1,2-b]pyridazin-6-ol]
IC50: 1 to 10 µM

CCc1ccccc1[C@H]1NC[C@@H](O)c2nc3ccc(-c4ccc(C(C)(C)O)cc4)nn3c21 (racemic) [Example 25, (+/−)-cis-9-(2-ethylphenyl)-2-(4-(2-hydroxypropan-2-yl)phenyl)-6,7,8,9-tetrahydropyrido[4′,3′:4,5]imidazo[1,2-b]pyridazin-6-ol]
IC50: 1 to 10 µM

CC(C)(O)c1ncc(-c2ccc3nc4c(n3n2)[C@H](c2ccccc2OC(F)F)OC[C@@H]4O)cn1 (relative stereo) [Example 61, Cis-9-(2-(difluoromethoxy)phenyl)-2-(2-(2-hydroxypropan-2-yl)pyrimidin-5-yl)-6,9-dihydro-7H-pyrano[4′,3′:4,5]imidazo[1,2-b]pyridazin-6-ol]
IC50: 10 to 25 µM

(+/−)-trans-9-(2,5-dimethylphenyl)-2-(4-(2-hydroxypropan-2-yl)phenyl)-6,7,8,9-tetrahydropyrido[4′,3′:4,5]imidazo[1,2-b]pyridazin-6-ol [Example 53]
IC50: 1 to 10 µM

CC(C)(O)COc1ccc(-c2ccc3nc4c(n3n2)[C@@H](c2ccccc2OC(F)F)NC[C@H]4O)cc1 (racemic) [Example 29, (+/−)-cis-9-(2-(difluoromethoxy)phenyl)-2-(4-(2-hydroxy-2-methylpropoxy)phenyl)-6,7,8,9-tetrahydropyrido[4′,3′:4,5]imidazo[1,2-b]pyridazin-6-ol]
IC50: 1 to 10 µM

CC(C)(O)c1ncc(-c2ccc3nc4c(n3n2)C(c2ccccc2OC(F)F)NCC4O)cn1 (centres unmarked) [Example 17, 9-(2-(difluoromethoxy)phenyl)-2-(2-(2-hydroxypropan-2-yl)pyrimidin-5-yl)-6,7,8,9-tetrahydropyrido[4′,3′:4,5]imidazo[1,2-b]pyridazin-6-ol]
IC50: 1 to 10 µM

CCCOc1ccc(-c2ccc3nc4c(n3n2)[C@@H](c2ccccc2OC(F)F)NC[C@H]4O)cc1 (racemic) [Example 33, (+/−)-cis-9-(2-(difluoromethoxy)phenyl)-2-(4-propoxyphenyl)-6,7,8,9-tetrahydropyrido [4′,3′:4,5]imidazo[1,2-b]pyridazin-6-ol]
IC50: < 1 µM

(+/−)-cis-9-(2-(difluoromethoxy)phenyl)-2-(4-morpholinophenyl)-6,7,8,9-tetrahydropyrido[4′,3′:4,5]imidazo[1,2-b]pyridazin-6-ol [Example 45]
IC50: 1 to 10 µM

CC(C)COc1ccc(-c2ccc3nc4c(n3n2)[C@@H](c2ccccc2OC(F)F)NC[C@H]4O)cc1 (racemic) [Example 27, (+/−)-cis-9-(2-(difluoromethoxy)phenyl)-2-(4-isobutoxyphenyl)-6,7,8,9-tetrahydropyrido[4′,3′:4,5]imidazo[1,2-b]pyridazin-6-ol]
IC50: 1 to 10 µM
